3 compounds from patent US20220290200A1, “GENETICALLY MODIFIED HOST CELLS PRODUCING GLYCOSYLATED CANNABINOIDS” (OCTARINE BIO IVS, priority 2019, published 2022) can be followed below.

Series [1] can be described thus: In vitro glycosyl transferase performance, purified enzymes, % conversion of cannabinoids to cannabinoid glycosides. The format is biochemical. To be noted: acceptor CBD, UDP-Glucose. The method in brief: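 His-tagged glycosyl transferases expressed in E. coli XJb (DE3) were Ni-affinity purified. Cannabinoids (in methanol) were incubated with enzyme, UDP-sugar and alkaline phosphatase without shaking at 30 °C for 24 h. Products confirmed by LC-MS/QTOF; % conversion derived from substrate decrease and glycoside peak areas against authentic standards.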

Series [2] is described as follows: Thermodynamic aqueous solubility assay in PBS. To be noted: for Thermodynamic solubility: room temperature, PBS buffer pH 7.4, duplicate. As to the method: Alternatively, aqueous solubility was determined by a thermodynamic solubility assay as follows. 2.5 mg of test compound was weighed in a glass vial, 0.5 mL of phosphate buffered saline (pH=7.4) was added and the sample briefly vortexed. Samples were then incubated overnight at room temperature on a vial roller system to dissolve as much of the compound as possible into solution. Following incubation, the aqueous solutions were filtered in duplicate ([…]) and the filtrate diluted 1:1 with 100% methanol. Samples were further diluted where necessary and analyzed by HPLC. The concentration of compound in solution was determined by comparison to a standard curve made with authentic analytical standards.

The subject of series [3] is S. cerevisiae strain BY4741. Briefly: Toxicity of cannabinoids and cannabinoid glycosides in S. cerevisiae (final OD600). To be noted: 3% ethanol; for Final OD600 of S. cerevisiae: 72 h; for toxicity to yeast (final OD600 after 72 h): YP media, 2% glucose, 30° C., concentration range tested. The format is cell-based. As to the method: It is well known that cannabinoids are toxic to microbes, and it is thought that these compounds are produced by cannabis plants as a defense mechanism against infection. […] Product toxicity in microbial strains engineered to produce cannabinoids will hinder high-level production of these molecules, glycosylating these molecules can be used to detoxify them and facilitate higher production titers in engineered microbial strains. […] Cells were inoculated to a starting OD600 of 0.1 and incubated at 30° C. and 200 RPM and the final OD600 was measured after 72 h.

Consider `C=C(C)[C@@H]1CCC(C)=C[C@H]1c1c(O)cc(CCCCC)cc1O[C@@H]1O[C@H](CO)[C@@H](O)[C@H](O)[C@H]1O` [OB1, CBD-1′-O-β-D-glucoside], for which, in series [1] (enzyme PL-159(Pt88G_GA), in vitro 30° C. 24 h), the “Conversion % (CBD to the glycoside)” value is 75%.

As to `C=C(C)[C@@H]1CCC(C)=C[C@H]1c1c(O)cc(CCCCC)cc1O` [CBD, cannabidiol, reference compound], the solubility in series [2] (phosphate buffered saline, pH 7.4, aqueous buffer, thermodynamic from solid) was at most 0.0005 mM. For the same compound, the Thermodynamic solubility entry in series [2] is listed as “Below Detection Limit”. For the same compound, the “Final OD600 of S. cerevisiae” value in series [3] (100 μM substrate added) turned out to be 9.3; in series [3] (200 μM substrate added), 8.2; in series [3] (400 μM substrate added), 6.7; in series [3] (800 μM substrate added) it was 4.7. The “toxicity to yeast (final OD600 after 72 h)” value in series [3] was “toxic to yeast”.

In the case of `C=C(C)[C@@H]1CCC(C)=C[C@H]1c1c(O[C@@H]2O[C@H](CO)[C@@H](O)[C@H](O)[C@H]2O)cc(CCCCC)cc1O[C@@H]1O[C@H](CO)[C@@H](O)[C@H](O)[C@H]1O` [OB6, CBD-1′-O-β-D-glucosyl-3′-O-β-D-glucoside], the Thermodynamic solubility in series [2] came to 11.4 ± 0.75 mM. For the same compound, the “Final OD600 of S. cerevisiae” value came to 9.1 in series [3] (100 μM substrate added), 8.8 in series [3] (200 μM substrate added), 9.5 in series [3] (400 μM substrate added) and 8.8 in series [3] (800 μM substrate added). For the same compound, the “toxicity to yeast (final OD600 after 72 h)” value in series [3] is “non-toxic at the concentration range tested”. For the same compound, in series [1] (enzyme PL-214(Cs73Y_GA)), the “Conversion % (CBD to the glycoside)” value is given as 57.5%.
